The values below come from patent US6800658B2, “Substituted diphenyl indanone, indane and indole compounds and analogues thereof useful for the treatment of prevention of diseases characterized by abnormal cell proliferation” (Children's Medical Center Corporation, priority 1997, dated 2004).

Data set [1] deals with SAD mouse red cells. As to conditions: oral administration; cited from earlier work.
The test system of data set [2] is patients with sickle cell disease. As to conditions: oral therapy; cited from earlier work.
The subject of data set [3] is MM-RU human melanoma cells. The following applies: SCID mice inoculated with MM-RU human melanoma cells, daily administration; cited from earlier work.
The target of data set [4] is Gardos channel of erythrocytes (Homo sapiens, UniProt O15554). The experiment in a line: Gardos Channel Assay. The following applies: for inhibition at 10 µM: read-out: Gardos Channel Assay Inhibition.
For data set [5], the system named is NIH 3T3 mouse fibroblast cells. The data set can be described thus: Mitogenic Assay (mitogen-induced cell proliferation). The following applies: for IC50: NIH3T3, read-out: Mitogenic Assay IC50; for inhibition at 10 µM: NIH3T3, read-out: Mitogenic Assay Inhibition.
For data set [6], the system named is HeLa. The experiment in a line: SRB antiproliferative assay, HeLa. The format is cell-based. The following applies: Homo sapiens, 120 h, Cervical, 5% FCS, 5 Day Incubation. The text has this: (§1) The cells were passaged using Trypsin (Gibco).
On the technique in general: Sulforhodamine B stains cellular protein and so reports cell mass.

Data set [7] concerns CaSki. The experiment in a line: SRB antiproliferative assay, CaSki. The format is cell-based. As to conditions: Homo sapiens, Ca-Ski, 120 h; Cervical; 5% FCS, 5 Day Incubation.
From the text: as §1

Data set [8] concerns MDA-MB-231. The experiment in a line: SRB antiproliferative assay, MDA-MB-231. Format: cell-based. The following applies: Homo sapiens, 120 h; Breast; 5% FCS, 5 Day Incubation; read-out: SRB IC50 MDA-MB-23.
From the text: as §1

The subject of data set [9] is HTB174. The data set can be described thus: SRB antiproliferative assay, HTB174. Format: cell-based. As to conditions: 120 h; Lung; 5% FCS, 5 Day Incubation.
From the text: as §1

The subject of data set [10] is HEPG2. The data set can be described thus: SRB antiproliferative assay, HEPG2. The format is cell-based. As to conditions: Homo sapiens, HepG2, 120 h; Hepatocel; 5% FCS, 5 Day Incubation.
From the text: as §1

Data set [11] deals with DU-145. The experiment in a line: SRB antiproliferative assay, DU-145. The format is cell-based. As to conditions: Homo sapiens, DU-145, 120 h; Prostate; 5% FCS, 5 Day Incubation.
From the text: as §1

For data set [12], the system named is SK-MEL-28. The experiment in a line: SRB antiproliferative assay, SK-MEL-28. Format: cell-based. As to conditions: Homo sapiens, SK-MEL-28, 120 h; Melanoma; 5% FCS, 5 Day Incubation.
From the text: as §1

The subject of data set [13] is HCT-15. The experiment in a line: SRB antiproliferative assay, HCT-15. Format: cell-based. As to conditions: Homo sapiens, HCT-15, 120 h; Colon; 5% FCS, 5 Day Incubation.
From the text: as §1

Data set [14] relates to ACHN. The experiment in a line: SRB antiproliferative assay, ACHN. The following applies: Homo sapiens, 120 h, Renal, 5% FCS, 5 Day Incubation. The format is cell-based.
From the text: as §1

The test system of data set [15] is SK-OV-3. The experiment in a line: SRB antiproliferative assay, SK-OV-3. As to conditions: Homo sapiens, SK-OV-3, 120 h; Ovary; 5% FCS, 5 Day Incubation. Format: cell-based.
From the text: as §1

Data set [16] concerns HUVEC. The data set can be described thus: SRB assay, normal HUVEC cells. The format is cell-based. The following applies: 120 h, Normal human, 5% FCS, 5 Day Incubation.
From the text: as §1

Data set [17] concerns GM. The data set can be described thus: SRB assay, normal GM cells. Format: cell-based. The following applies: 120 h; Normal human; 5% FCS, 5 Day Incubation.
From the text: as §1

For data set [18], the system named is 3T3. The experiment in a line: SRB assay, normal 3T3 cells. The format is cell-based. The following applies: NIH3T3, 120 h; Normal mouse; 5% FCS, 5 Day Incubation.
From the text: as §1

Data set [19] relates to L929. The data set can be described thus: SRB assay, normal L929 cells. Format: cell-based. As to conditions: L929, 120 h; Normal mouse; 5% FCS, 5 Day Incubation.
From the text: as §1

Data set [20] has as its system MCF7. The experiment in a line: SRB antiproliferative assay, MCF7. As to conditions: Homo sapiens, MCF7, 120 h, read-out: SRB IC50 MCF7.
Protocol: (§2) The antiproliferative assays described herein were performed using standard aseptic procedures and universal precautions for the use of tissues. Cells were propagated using RPMI 1640 media (Gibco) containing 2% N 5% fetal calf serum (Biowhittaker) at 37° C., 5% CO2 and 95% humidity. The cells were passaged using Trypsin (Gibco).
(§3) Following incubation, the cellular protein was determined with the ulforhodamine B (SRB) assay (Skehan P et al., 1990, J. Natl. Cancer Inst. 82:1107-1112).
In data set [21] the test system is A549. The data set can be described thus: SRB antiproliferative assay, A549. As to conditions: Homo sapiens, A549, 120 h, read-out: SRB IC50 A549.
Protocol: as §2, §3
The subject of data set [22] is MMRU cells. The experiment in a line: SRB antiproliferative assay, MMRU. As to conditions: Homo sapiens, 120 h, read-out: SRB IC50 MMRU.
Protocol: as §2, §3
Data set [23] deals with HT29. The data set can be described thus: SRB antiproliferative assay, HT29. As to conditions: Homo sapiens, HT-29, 120 h, read-out: SRB IC50 HT29.
Protocol: as §2, §3

Each structure is given as a SMILES string.

Chain of Gardos channel of erythrocytes (O15554 whole entry): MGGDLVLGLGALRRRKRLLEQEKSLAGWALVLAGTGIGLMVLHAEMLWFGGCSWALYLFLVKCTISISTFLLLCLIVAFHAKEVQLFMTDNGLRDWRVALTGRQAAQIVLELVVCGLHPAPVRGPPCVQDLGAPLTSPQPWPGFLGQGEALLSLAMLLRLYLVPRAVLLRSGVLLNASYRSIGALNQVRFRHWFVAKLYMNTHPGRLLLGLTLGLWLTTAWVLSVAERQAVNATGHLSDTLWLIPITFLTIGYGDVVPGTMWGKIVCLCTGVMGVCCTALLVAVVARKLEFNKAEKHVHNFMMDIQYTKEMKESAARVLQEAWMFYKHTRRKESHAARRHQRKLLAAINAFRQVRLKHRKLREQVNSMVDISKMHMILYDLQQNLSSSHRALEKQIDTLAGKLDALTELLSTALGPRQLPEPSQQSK

With `Clc1ccccc1C(c1ccccc1)(c1ccccc1)n1ccnc1` [Clotrimazole], in data set [1], the cell density result is recorded as “decreased”, the “mean cell hemoglobin concentration (MCHC)” value is recorded as “decreased”, the “red cell Gardos channel” value is listed as “inhibition” and the “red cell K+ content” value is “increased”. Besides, in data set [2], the Gardos channel entry is “induces inhibition” and the erythrocyte dehydration entry is recorded as “reduces”. Moreover, in data set [3], the “number of lung metastases observed” value is “significant reduction”.
For `COC(=O)C1C(=O)c2ccccc2C1(c1ccccc1)c1ccccc1` (stereo not drawn) [Compound 15, 3,3-Diphenylindanone-2-methyl acetate], the melting point (in general, the temperature of the solid-liquid transition) was 140 to 142 °C. Further, in data set [4], the midpoint of inhibition, the IC50, lay at 2.9 µM and the inhibition (commonly the change of the read-out against control, counted positive when it falls) at 10 µM stood at 54.8%. In data set [5], the half-maximal inhibitory concentration (IC50) (commonly the concentration needed to halve the response being measured) came out at 7.5 µM and the inhibition at 10 µM was found to be 80%.
As to `OC1=C(CCC2OCCO2)C(c2ccccc2)(c2ccccc2)c2ccccc21` [Compound 20, 2-(Ethyl-2′-(1,3-dioxolane))-1-hydroxy-3,3-diphenylindene], the melting point is 124 to 126 °C. Further, in data set [4], the inhibition at 10 µM was determined as 0%. In addition, the inhibition at 10 µM in [5] was 81%.
`N#CC1OC12CC(c1ccccc1)(c1ccccc1)c1ccccc12` (stereo not drawn) [Compound 5, spiro[3,3-diphenyl-2,3-dihydro(1H)indene-1,3′-2′-cyanooxirane]]: the inhibition at 10 µM came to 67.3% in data set [4] and 29% in data set [5].
On to `O/N=C1\CC(c2ccc(Cl)cc2)(c2ccc(Cl)cc2)c2ccc(Cl)cc21` [Compound 11], for which the melting point was 85 °C. The IC50 in [6] was 5.1 µM. This compound also registered a concentration for half-maximal inhibition (IC50) in data set [7] of 7 µM. Also, the half-inhibitory concentration (IC50) in [8] was over 10 µM. Further, in [9], the IC50 amounted to 5.9 µM. The IC50 in [10] was 5.8 µM. In data set [11], the IC50 is over 10 µM. The IC50 in data set [12] came out at 5.5 µM. Moreover, the half-maximal inhibitory concentration (IC50) in data set [13] worked out at 6.6 µM. Besides, in data set [14], the half-maximal inhibitory concentration (IC50) is over 10 µM. The IC50 in [15] is over 10 µM. For the same compound, half-maximal inhibition in [16] (IC50) required 6.4 µM. The same compound returned a half-inhibitory concentration (IC50) in [17] of over 10 µM. Moreover, the concentration for half-maximal inhibition (IC50) in data set [18] was over 10 µM. The same compound showed an IC50 in data set [19] of 8.6 µM. Further, the inhibition at 10 µM in [4] is 50%. The IC50 in data set [20] was 4.4 µM. Further, in data set [21], the IC50 came to 8.8 µM. In data set [22], the IC50 was 6.2 µM. Further, the IC50 in data set [23] was 6.8 µM. In addition, in data set [5], the concentration for half-maximal inhibition (IC50) amounted to 3.4 µM and the inhibition at 10 µM worked out at 99%.
For `COC(=O)c1ccc(COC2CC(c3ccccc3)(c3ccccc3)c3ccccc32)cc1` (stereo not drawn) [Compound 17, 3,3-Diphenyl-1-indanyl α-(4-methyltoluate) ether], the melting point was 50 to 52 °C. For the same compound, the inhibition at 10 µM in data set [4] is 0%. Besides, in data set [5], the inhibition at 10 µM was determined as 76%.
Compound `Clc1ccccc1COC1CC(c2ccccc2)(c2ccccc2)c2ccccc21` (stereo not drawn) [Compound 18, 3,3-Diphenyl-1-indanyl α-(2-chlorotoluyl) ether] came in with a melting point of 27 to 29 °C. Also, in data set [4], the inhibition at 10 µM came out at 0%. Further, in data set [5], the inhibition at 10 µM came out at 73%.
On to `C=CCOC1=C(CC=C)C(c2ccccc2)(c2ccccc2)c2ccccc21` [Compound 6], for which the inhibition at 10 µM in [4] was determined as 35%. Also, in data set [5], the concentration for half-maximal inhibition (IC50) stood at 3.4 µM and the inhibition at 10 µM is 90%.
